The record followed here is patent US11254663B2 (BRISTOL-MYERS SQUIBB COMPANY, priority 2019, dated 2022).

For the first experiment, the target named is FXR (Homo sapiens (Human), UniProt Q96RI1). As to the kind of experiment: transient human FXR/Gal4-luciferase reporter assay. It is filed as cell-based.
Chain of FXR (Q96RI1 262-486): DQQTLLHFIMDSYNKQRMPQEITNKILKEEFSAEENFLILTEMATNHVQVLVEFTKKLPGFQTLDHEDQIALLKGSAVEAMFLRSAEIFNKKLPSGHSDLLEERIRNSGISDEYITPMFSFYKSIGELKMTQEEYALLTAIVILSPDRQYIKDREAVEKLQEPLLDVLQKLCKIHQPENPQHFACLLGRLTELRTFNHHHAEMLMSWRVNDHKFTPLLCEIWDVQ
Details: not given
The method in brief: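 HEK293 cells stably carrying a 5×Gal4 response element–firefly luciferase reporter were transiently transfected overnight with a Gal4 DBD–human FXR LBD fusion plasmid. Compound was added in DMSO and cells were incubated overnight at 37 °C, 5% CO2. Activity was read as Steady-Glo luminescence.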
A general note: Reporter assays use an easily measured gene product as a stand-in for the process of interest.
What is called EC50 is the concentration needed to bring the measured effect to its halfway point. The compound `CC(C)(C)c1nc(C23CCC(CN(C(=O)C45CC(F)(C4)C5)c4cncc(-c5ccc(OC(F)F)cc5)c4)(CC2)CC3)no1` [Example 483, N-((4-(5-(tert-butyl)-1,2,4-oxadiazol-3-yl)bicyclo[2.2.2]octan-1-yl)methyl)-N-(5-(4-(difluoromethoxy)phenyl)pyridin-3-yl)-3-fluorobicyclo[1.1.1]pentane-1-carboxamide] showed an EC50 of 255 nM. On the same count and under the same terms, next, `CC(C)(O)c1ccc(-c2cccc(N(CC34CCC(c5noc(C(C)(C)F)n5)(CC3)CC4)C(=O)NC3CCS(=O)(=O)CC3)c2)cc1` [Example 644, 3-(1,1-dioxidotetrahydro-2H-thiopyran-4-yl)-1-((4-(5-(2-fluoropropan-2-yl)-1,2,4-oxadiazol-3-yl)bicyclo[2.2.2]octan-1-yl)methyl)-1-(4′-(2-hydroxypropan-2-yl)-[1,1′-biphenyl]-3-yl)urea]: 743 nM; `COc1ncc(-c2cccc(N(CC34CCC(c5ccc(C(F)(F)F)cn5)(CC3)CC4)C(=O)C34CC(F)(C3)C4)c2)cn1` [Example 494, 3-fluoro-N-(3-(2-methoxypyrimidin-5-yl)phenyl)-N-((4-(5-(trifluoromethyl)pyridin-2-yl)bicyclo[2.2.2]octan-1-yl)methyl)bicyclo[1.1.1]pentane-1-carboxamide]: 516 nM; `CC(C)(O)c1ccc(-c2cccc(N(CC34CCC(c5noc(C(C)(C)F)n5)(CC3)CC4)C(=O)NCC(F)(F)CO)c2)cc1` [Example 646, 3-(2,2-difluoro-3-hydroxypropyl)-1-((4-(5-(2-fluoropropan-2-yl)-1,2,4-oxadiazol-3-yl)bicyclo[2.2.2]octan-1-yl)methyl)-1-(4′-(2-hydroxypropan-2-yl)-[1,1′-biphenyl]-3-yl)urea]: 270 nM.

As to `CC(C)(C)c1nc(C23CCC(CN(C(=O)C45CC(F)(C4)C5)c4cc(-c5ccc(OC(F)F)cn5)ccn4)(CC2)CC3)no1` [Example 544, N-((4-(5-(tert-butyl)-1,2,4-oxadiazol-3-yl)bicyclo[2.2.2]octan-1-yl)methyl)-N-(5-(difluoromethoxy)-[2,4′-bipyridin]-2′-yl)-3-fluorobicyclo[1.1.1]pentane-1-carboxamide], a half-maximal response (EC50) required 20 nM. Turning to `CCOc1ncc(-c2cccc(N(CC34CCC(c5noc(C6(C(F)(F)F)CC6)n5)(CC3)CC4)C(=O)C34CC(F)(C3)C4)c2)cn1` [Example 525, N-(3-(2-ethoxypyrimidin-5-yl)phenyl)-3-fluoro-N-((4-(5-(1-(trifluoromethyl)cyclopropyl)-1,2,4-oxadiazol-3-yl)bicyclo[2.2.2]octan-1-yl)methyl)bicyclo[1.1.1]pentane-1-carboxamide], the concentration for a half-maximal effect (EC50) was determined as 142 nM. The same measure, in the same setting: in the case of `CC(C)(O)c1ccc(-c2cccc(N(CC34CCC(c5noc(C(C)(C)F)n5)(CC3)CC4)C(=O)NCCC3(O)CCCC3)c2)cc1` [Example 650, 1-((4-(5-(2-fluoropropan-2-yl)-1,2,4-oxadiazol-3-yl)bicyclo[2.2.2]octan-1-yl)methyl)-3-(2-(1-hydroxycyclopentyl)ethyl)-1-(4′-(2-hydroxypropan-2-yl)-[1,1′-biphenyl]-3-yl)urea] it was 472 nM.

Staying with this experiment, now noted: Gal4-hFXR fusion construct, HEK293 reporter cells; response relative to 8 μM GW-4064.
`O=C(N(CC12CCC(c3nc(C4CC4)no3)(CC1)CC2)c1cccc(-c2ccc3nncn3c2)c1)C12CC(F)(C1)C2` [Example 323, N-(3-([1,2,4]triazolo[4,3-a]pyridin-6-yl)phenyl)-N-((4-(3-cyclopropyl-1,2,4-oxadiazol-5-yl)bicyclo[2.2.2]octan-1-yl)methyl)-3-fluorobicyclo[1.1.1]pentane-1-carboxamide] came in with a half-maximal effective concentration (EC50) of 1630 nM.

`N#Cc1cc2c(nc1-c1cccc(N(CC34CCC(c5nc(C6CC6)no5)(CC3)CC4)C(=O)C34CC(F)(C3)C4)c1)CCOC2` [Example 328, N-(3-(3-cyano-7,8-dihydro-5H-pyrano[4,3-b]pyridin-2-yl)phenyl)-N-((4-(3-cyclopropyl-1,2,4-oxadiazol-5-yl)bicyclo[2.2.2]octan-1-yl)methyl)-3-fluorobicyclo[1.1.1]pentane-1-carboxamide]: a half-maximal effect (EC50) was put at 339 nM. Still for that read-out and setting: next, `CC(C)(C#N)Oc1ccc(-c2cccc(N(CC34CCC(c5noc(C6(F)CC6)n5)(CC3)CC4)C(=O)C3CC(O)(C(F)(F)F)C3)c2)cc1` (stereo not drawn) [Example 583, (cis)-N-(4′-((2-cyanopropan-2-yl)oxy)-[1,1′-biphenyl]-3-yl)-N-((4-(5-(1-fluorocyclopropyl)-1,2,4-oxadiazol-3-yl)bicyclo[2.2.2]octan-1-yl)methyl)-3-hydroxy-3-(trifluoromethyl)cyclobutane-1-carboxamide]: 49 nM; `COCc1ccc(-c2cccc(N(CC34CCC(c5nc(C(C)C)no5)(CC3)CC4)C(=O)C34CC(F)(C3)C4)c2)cc1` [Example 392, 3-fluoro-N-((4-(3-isopropyl-1,2,4-oxadiazol-5-yl)bicyclo[2.2.2]octan-1-yl)methyl)-N-(4′-(methoxymethyl)-[1,1′-biphenyl]-3-yl)bicyclo[1.1.1]pentane-1-carboxamide]: 183 nM.

The compound `CCOc1ccc(-c2cccc(N(CC34CCC(c5nc(C(C)(C)C)no5)(CC3)CC4)C(=O)C34CC(F)(C3)C4)c2)cc1` [Example 359, N-((4-(3-(tert-butyl)-1,2,4-oxadiazol-5-yl)bicyclo[2.2.2]octan-1-yl)methyl)-N-(4′-ethoxy-[1,1′-biphenyl]-3-yl)-3-fluorobicyclo[1.1.1]pentane-1-carboxamide] registered an EC50 of 151 nM. As to `CC(C)(O)c1ccc(-c2cc(N(CC34CCC(c5noc(C(C)(C)F)n5)(CC3)CC4)C(=O)OC(C)(C)C(F)(F)F)ncc2F)cc1` [Example 620, 1,1,1-trifluoro-2-methylpropan-2-yl(5-fluoro-4-(4-(2-hydroxypropan-2-yl)phenyl)pyridin-2-yl)((4-(5-(2-fluoropropan-2-yl)-1,2,4-oxadiazol-3-yl)bicyclo[2.2.2]octan-1-yl)methyl) carbamate], the EC50 came out at 29 nM. Same read-out and setting: in the case of `COc1ncc(-c2cccc(N(CC34CCC(c5nc(C6CC6)no5)(CC3)CC4)C(=O)C34CC(F)(C3)C4)c2)cn1` [Example 248, N-((4-(3-cyclopropyl-1,2,4-oxadiazol-5-yl)bicyclo[2.2.2]octan-1-yl)methyl)-3-fluoro-N-(3-(2-methoxypyrimidin-5-yl)phenyl)bicyclo[1.1.1]pentane-1-carboxamide] it was 154 nM. `N#Cc1cnc2ccc(-c3cccc(N(CC45CCC(c6nc(C7CC7)no6)(CC4)CC5)C(=O)C45CC(F)(C4)C5)c3)nn12` [Example 306, N-(3-(3-cyanoimidazo[1,2-b]pyridazin-6-yl)phenyl)-N-((4-(3-cyclopropyl-1,2,4-oxadiazol-5-yl)bicyclo[2.2.2]octan-1-yl)methyl)-3-fluorobicyclo[1.1.1]pentane-1-carboxamide] had a half-maximal effective concentration (EC50) of 386 nM. This EC50 is about 2.5-fold higher than that of the compound before. In turn, `CC(C)(F)c1nc(C23CCC(CN(c4cccc(N5CC6(COC6)C5)c4)C(=O)[C@H]4C[C@](O)(C(F)(F)F)C4)(CC2)CC3)no1` [Example 592, (cis)-N-(3-(2-oxa-6-azaspiro[3.3]heptan-6-yl)phenyl)-N-((4-(5-(2-fluoropropan-2-yl)-1,2,4-oxadiazol-3-yl)bicyclo[2.2.2]octan-1-yl)methyl)-3-hydroxy-3-(trifluoromethyl)cyclobutane-1-carboxamide] showed an EC50 of 970 nM.
